Results from PubChem BioAssay AID1259408 (Genetic Toxicology Data Bank (GENE-TOX), 2018).
Activity calls are given as the source filed them. How the calls were made is not given here.

Test system: GENE-TOX genotoxicity assays, various organisms and cells
Test: GENE-TOX mutagenicity studies
Details: for call: Assay Type: In vivo carcinogenicity studies
[1] = Species/Cell Type: Chinese hamster lung (V79) cells, Assay Type: Forward gene mutation at the HPRT or ouabain locus, Assay Code: V79+, Evaluation Type: Evaluation A (Pre-1980)
[2] = Species/Cell Type: Drosophila melanogaster, Assay Type: Sex-linked recessive lethal gene mutation, Assay Code: SRL+, Evaluation Type: Evaluation A (Pre-1980)
[3] = Species/Cell Type: Human lymphocytes, Assay Type: Sister-chromatid exchange (SCE) in vitro, Assay Code: SCL+D, Dose Response: With dose response, Evaluation Type: Evaluation B (Post-1980)
[4] = Species/Cell Type: Human, Assay Type: Sister-chromatid exchange (SCE) in vitro, Assay Code: SC1+D, Dose Response: With dose response, Evaluation Type: Evaluation B (Post-1980)
[5] = Species/Cell Type: Mammalian polychromatic erythrocytes, Assay Type: Micronucleus test, chromosome aberrations, Assay Code: MNTT, Evaluation Type: Evaluation A (Pre-1980)
[6] = Species/Cell Type: Nonhuman, Assay Code: CCG+L, Evaluation Type: Evaluation A (Pre-1980)
[7] = Species/Cell Type: Nonhuman, Assay Type: Sister-chromatid exchange (SCE) in vivo, Assay Code: SC3+, Evaluation Type: Evaluation B (Post-1980)
[8] = Species/Cell Type: Rodents, Sex: Male, Assay Type: Dominant lethal test, Assay Code: DLT-, Evaluation Type: Evaluation A (Pre-1980)
[9] = Species/Cell Type: Salmonella typhimurium (one or more of the five standard strains: TA98, TA100, TA1535, TA1537, and TA1538), Assay Type: Histidine reverse gene mutation, Ames assay, Assay Code: SAL+, Evaluation Type: Evaluation A (Pre-1980)
[10] = Species/Cell Type: Nonhuman, Assay Code: CCGT, Evaluation Type: Evaluation A (Pre-1980)
[11] = Species/Cell Type: Salmonella typhimurium (one or more of the five standard strains: TA98, TA100, TA1535, TA1537, and TA1538), Assay Type: Histidine reverse gene mutation, Ames assay, Assay Code: SAL+*, Activation: With metabolic activation, Evaluation Type: Evaluation A (Pre-1980)
[12] = Species/Cell Type: Mammalian polychromatic erythrocytes, Assay Type: Micronucleus test, chromosome aberrations, Assay Code: MNTT, Evaluation Type: Evaluation B (Post-1980)
[13] = Species/Cell Type: Salmonella typhimurium (one or more of the five standard strains: TA98, TA100, TA1535, TA1537, and TA1538), Assay Type: Histidine reverse gene mutation, Ames assay, Assay Code: SALT, Evaluation Type: Evaluation A (Pre-1980)
[14] = Species/Cell Type: Mouse, Sex: Male, Assay Type: Sperm morphology, Assay Code: SPI-, Evaluation Type: Evaluation A (Pre-1980)
[15] = Species/Cell Type: Salmonella typhimurium, Assay Type: Forward and reverse gene mutation, host-mediated assay, Assay Code: HMA-, Evaluation Type: Evaluation A (Pre-1980)
[16] = Species/Cell Type: Salmonella typhimurium (one or more of the five standard strains: TA98, TA100, TA1535, TA1537, and TA1538), Assay Type: Histidine reverse gene mutation, Ames assay, Assay Code: SAL-, Evaluation Type: Evaluation A (Pre-1980)

c1ccc(C2CO2)cc1 (stereo not drawn)
mutagenic call [1]: active; positive
mutagenic call [2]: active; positive
mutagenic call (Species/Cell Type: Escherichia coli WP2 UVRA, Assay Type: Tryptophan reverse gene mutation, Assay Code: WPU+D, Dose Response: With dose response, Evaluation Type: Evaluation A (Pre-1980)): active; positive
mutagenic call (Species/Cell Type: Human diploid fibroblasts, Assay Type: Unscheduled DNA synthesis (UDS) in vitro, DNA effects, Assay Code: UDH+, Evaluation Type: Evaluation A (Pre-1980)): active; positive
mutagenic call (Species/Cell Type: Human lymphocytes, Assay Type: Micronucleus test in vitro, chromosome aberrations, Assay Code: MN7+, Evaluation Type: Evaluation A (Pre-1980)): active; positive
mutagenic call [3]: active; positive
mutagenic call [4]: active; positive
mutagenic call [5]: no conclusion
call [6]: active; positive
mutagenic call [7]: active; positive
mutagenic call (Species/Cell Type: Plant, Assay Type: Micronucleus test, chromosome aberrations, Assay Code: MNP+, Evaluation Type: Evaluation A (Pre-1980)): active; positive
mutagenic call [8]: inactive; negative
mutagenic call (Species/Cell Type: Saccharomyces cerevisiae, Assay Type: Forward and reverse gene mutation, mitotic recombination and gene conversion, host-mediated assay, Assay Code: HME+, Evaluation Type: Evaluation A (Pre-1980)): active; positive
mutagenic call (Species/Cell Type: Saccharomyces cerevisiae, Assay Type: Mitotic recombination or gene conversion, Assay Code: YEC+*, Activation: With metabolic activation, Evaluation Type: Evaluation A (Pre-1980)): active; positive
mutagenic call [9]: active; positive
mutagenic call (Species/Cell Type: Schizosaccharomyces pombe, Assay Type: Forward gene mutation, Assay Code: YEY+/-*, Activation: With metabolic activation, Evaluation Type: Evaluation A (Pre-1980)): inactive; positive without activation, negative with activation

O=NN(CCCl)C(=O)NC(NC(=O)N(CCCl)N=O)(c1ccccc1)c1ccccc1
mutagenic call [2]: active; positive

Cc1ccc2cc3c(c4c2c1CC4)[C@H](O)[C@@H](O)c1ccccc1-3
mutagenic call (Species/Cell Type: Chinese hamster lung (V79) cells, Assay Type: Forward gene mutation at the HPRT or ouabain locus, Assay Code: V79-, Evaluation Type: Evaluation A (Pre-1980)): inactive; negative
mutagenic call (Species/Cell Type: Mouse prostate cells, Assay Type: Cell transformation, Assay Code: CTM-, Evaluation Type: Evaluation A (Pre-1980)): inactive; negative
call [10]: no conclusion
mutagenic call [11]: active; positive

NNC(=O)COc1ccc(Br)cc1CN1CCOCC1
mutagenic call (Species/Cell Type: Saccharomyces cerevisiae, Assay Type: Reverse gene mutation, Assay Code: YERT, Evaluation Type: Evaluation A (Pre-1980)): no conclusion

O=[N+]([O-])c1cc(Cl)cc(Sc2cc(Cl)cc([N+](=O)[O-])c2O)c1O
mutagenic call [12]: no conclusion

Nc1ccc(O)c([N+](=O)[O-])c1
mutagenic call (Species/Cell Type: Fischer rat embryo (RLV/1706) cells, Assay Type: Cell transformation, viral enhanced, Assay Code: CTR+, Evaluation Type: Evaluation A (Pre-1980)): active; positive
call [6]: active; positive
mutagenic call [8]: inactive; negative

O[C@@H]1[C@H]2O[C@H]2c2cc3ccc4ccccc4c3cc2[C@H]1O
mutagenic call [1]: active; positive

CNC(=O)ON=CC(C)(C)SC
mutagenic call [3]: active; positive
mutagenic call [4]: active; positive
call (Species/Cell Type: Nonhuman, Assay Code: CCG-, Evaluation Type: Evaluation A (Pre-1980)): inactive; negative

Cc1cc(N=Nc2c(O)ccc3ccccc23)c(S(=O)(=O)O)cc1Cl
mutagenic call [13]: no conclusion

O=C1CCC(N2C(=O)c3ccccc3C2=O)C(=O)N1 (stereo not drawn)
mutagenic call (Species/Cell Type: Allium cepa, Assay Type: Chromosome aberrations, Assay Code: ALC+, Evaluation Type: Evaluation A (Pre-1980)): active; positive
mutagenic call (Species/Cell Type: Drosophila melanogaster, Assay Type: Aneuploidy, partial sex chromosome loss, chromosome aberrations, Assay Code: DAP-M, Evaluation Type: Evaluation A (Pre-1980)): inactive; negative
mutagenic call (Species/Cell Type: Drosophila melanogaster, Assay Type: Aneuploidy, sex chromosome gain, chromosome aberrations, Assay Code: DAG-M, Evaluation Type: Evaluation A (Pre-1980)): inactive; negative
mutagenic call (Species/Cell Type: Drosophila melanogaster, Assay Type: Aneuploidy, whole sex chromosome loss, chromosome aberrations, Assay Code: DAC-M, Evaluation Type: Evaluation A (Pre-1980)): inactive; negative
mutagenic call [14]: inactive; negative
mutagenic call [15]: inactive; negative
mutagenic call (Species/Cell Type: Vicia faba, Assay Type: Chromosome aberrations, Assay Code: VIC+, Evaluation Type: Evaluation A (Pre-1980)): active; positive

[O-][Cl+]O
mutagenic call [12]: no conclusion

CCC(C)c1cc([N+](=O)[O-])cc([N+](=O)[O-])c1OC(C)=O (stereo not drawn)
mutagenic call (Species/Cell Type: Saccharomyces cerevisiae, Assay Type: Mitotic recombination or gene conversion, Assay Code: YEC-, Evaluation Type: Evaluation A (Pre-1980)): inactive; negative

OC(O)C(F)(F)F
mutagenic call [13]: no conclusion

O=C1CN=C(c2ccccc2Cl)c2cc([N+](=O)[O-])ccc2N1
mutagenic call (Species/Cell Type: Salmonella typhimurium, Assay Type: Forward and reverse gene mutation, body fluid assay, Assay Code: BFU-, Evaluation Type: Evaluation A (Pre-1980)): inactive; negative
mutagenic call [15]: inactive; negative

CCN(CCCCCCN(CC)C(=O)C(Cl)Cl)C(=O)C(Cl)Cl
mutagenic call (Species/Cell Type: Human, Sex: Male, Assay Type: Sperm morphology, Assay Code: SPH+, Evaluation Type: Evaluation A (Pre-1980)): active; positive

Nc1ccc(N)c(N)c1
mutagenic call [14]: inactive; negative
mutagenic call [13]: no conclusion

CC1CN(/N=C/c2ccc([N+](=O)[O-])o2)C(=O)N1 (stereo not drawn)
mutagenic call [9]: active; positive

CC(C)OC(=O)Nc1ccccc1
mutagenic call (Species/Cell Type: Vicia faba, Assay Type: Chromosome aberrations, Assay Code: VIC+D, Dose Response: With dose response, Evaluation Type: Evaluation A (Pre-1980)): active; positive

O[C@@H]1c2ccc3cc4ccccc4cc3c2[C@@H]2OC2[C@@H]1O (stereo partly drawn)
mutagenic call [1]: active; positive

O=c1cc[nH]c(=O)[nH]1
mutagenic call (Species/Cell Type: Drosophila melanogaster, Assay Type: Sex-linked recessive lethal gene mutation, Assay Code: SRLT, Evaluation Type: Evaluation A (Pre-1980)): no conclusion

O[C@H]1C=Cc2cc3c(ccc4ccccc43)cc2[C@@H]1O
mutagenic call (Species/Cell Type: Chinese hamster lung (V79) cells, Assay Type: Forward gene mutation at the HPRT or ouabain locus, Assay Code: V79-*, Activation: With metabolic activation, Evaluation Type: Evaluation A (Pre-1980)): inactive; negative
call [10]: no conclusion
mutagenic call (Species/Cell Type: Nonhuman, Assay Type: Sister-chromatid exchange (SCE) in vitro, Assay Code: SC2+D, Dose Response: With dose response, Evaluation Type: Evaluation B (Post-1980)): active; positive
mutagenic call [13]: no conclusion

O=c1[nH]c(=O)n([C@H]2C[C@H](O)[C@@H](CO)O2)cc1CO
mutagenic call [3]: active; positive
mutagenic call [4]: active; positive

OC(CCl)OC(O)CCl (stereo not drawn)
mutagenic call [9]: active; positive

Oc1c(Br)cc(Br)c2cccnc12
mutagenic call [13]: no conclusion

CN(C)c1ccc(C(=N)c2ccc(N(C)C)cc2)cc1
mutagenic call (Species/Cell Type: Escherichia coli polA (W3119 vs P3478), Assay Type: Rec-assay, DNA effects (bacterial DNA repair), Assay Code: RE1+, Evaluation Type: Evaluation A (Pre-1980)): active; positive
mutagenic call [5]: no conclusion
call [6]: active; positive
mutagenic call (Species/Cell Type: Nonhuman, Assay Type: Sister-chromatid exchange (SCE) in vitro, Assay Code: SC2+*, Activation: With metabolic activation, Evaluation Type: Evaluation B (Post-1980)): active; positive
mutagenic call [7]: active; positive
mutagenic call (Species/Cell Type: Saccharomyces cerevisiae, Assay Type: Mitotic recombination or gene conversion, Assay Code: YEH+, Evaluation Type: Evaluation A (Pre-1980)): active; positive
mutagenic call [16]: inactive; negative
mutagenic call (Species/Cell Type: Syrian hamster embryo (SHE) cells, Assay Type: Cell transformation, clonal assay, Assay Code: CTCT, Evaluation Type: Evaluation A (Pre-1980)): no conclusion

Cc1cccc2cccnc12
mutagenic call [11]: active; positive

C[C@@H]1C[C@@H]2OC(=O)[C@]3(C)[C@H]2[C@@H](OC3(C)O)[C@]2(C)C(=O)C=C[C@@H]12 (stereo partly drawn)
mutagenic call [16]: inactive; negative

CC(=O)Nc1ccc([C@@H]2O[C@@H]2c2ccccc2)cc1
mutagenic call [13]: no conclusion

[O][Cl+][O-]
mutagenic call [12]: no conclusion

CCOc1ccc2c(c1)C(C)=CC(C)(C)N2
mutagenic call (Species/Cell Type: Drosophila melanogaster, Assay Type: Sex-linked recessive lethal gene mutation, Assay Code: SRL-, Evaluation Type: Evaluation A (Pre-1980)): inactive; negative
mutagenic call [16]: inactive; negative

COC/C=C(C)/C=C/C=C(C)/C=C/C1=C(C)CCCC1(C)C
mutagenic call [4]: active; positive
